# “Also recorded” adds a separate entry of the source.
# Assays:
# [1] = target: T1, rat semaphorin 6C-AP (Sema6C-AP) (Rattus norvegicus, UniProt Q9WTL3); test: Suppression of growth cone collapse activity of Sema6C-AP (chick embryo dorsal root ganglions); type: cell-based
# T1 construct: a fusion protein of extracellular domain of Sema6C and human placenta-derived alkaline phosphatase
# T1 sequence (Q9WTL3 24-635 limits assumed): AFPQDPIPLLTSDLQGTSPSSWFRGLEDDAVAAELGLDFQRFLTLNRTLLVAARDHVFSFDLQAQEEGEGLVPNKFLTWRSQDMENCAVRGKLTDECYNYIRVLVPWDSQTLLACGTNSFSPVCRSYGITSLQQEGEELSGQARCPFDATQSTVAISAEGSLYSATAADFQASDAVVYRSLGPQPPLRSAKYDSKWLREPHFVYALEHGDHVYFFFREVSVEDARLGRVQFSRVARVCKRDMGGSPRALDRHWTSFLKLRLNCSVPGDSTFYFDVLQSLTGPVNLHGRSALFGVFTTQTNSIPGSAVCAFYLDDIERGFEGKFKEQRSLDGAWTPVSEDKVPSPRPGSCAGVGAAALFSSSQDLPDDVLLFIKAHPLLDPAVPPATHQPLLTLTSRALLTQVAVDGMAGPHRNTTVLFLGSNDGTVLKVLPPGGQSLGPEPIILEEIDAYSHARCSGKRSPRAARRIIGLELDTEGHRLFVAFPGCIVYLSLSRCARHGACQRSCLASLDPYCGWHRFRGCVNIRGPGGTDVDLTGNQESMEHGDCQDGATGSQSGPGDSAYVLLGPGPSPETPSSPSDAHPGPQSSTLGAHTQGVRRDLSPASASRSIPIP
# Method: The experiment was carried out in a same way as in Example 2 except that rat semaphorin 6C-AP (Sema6C-AP: a fusion protein of extracellular domain of Sema6C and human placenta-derived alkaline phosphatase) was used instead of mouse semaphorin 3A (Sema3A), and dorsal root ganglions excised from 8-day-old chick embryos were used instead of those excised from 7-day-old chick embryos. The collapse rate of growth cone was measured when Sema6C-AP was added one hour after the addition of the compound SPF-3059-1 at various concentrations.
# Sema3A = target: T2, Sema3A (Mus musculus, UniProt O08665); test: Inhibition of collapse activity by contact of Sema3A and the inhibitor (Pre-Mix); type: cell-based; conditions: final concentration 0.05 μg/ml
# T2 construct: expressed in transfected cells; host or cells: COS7
# T2 sequence (O08665 21-772): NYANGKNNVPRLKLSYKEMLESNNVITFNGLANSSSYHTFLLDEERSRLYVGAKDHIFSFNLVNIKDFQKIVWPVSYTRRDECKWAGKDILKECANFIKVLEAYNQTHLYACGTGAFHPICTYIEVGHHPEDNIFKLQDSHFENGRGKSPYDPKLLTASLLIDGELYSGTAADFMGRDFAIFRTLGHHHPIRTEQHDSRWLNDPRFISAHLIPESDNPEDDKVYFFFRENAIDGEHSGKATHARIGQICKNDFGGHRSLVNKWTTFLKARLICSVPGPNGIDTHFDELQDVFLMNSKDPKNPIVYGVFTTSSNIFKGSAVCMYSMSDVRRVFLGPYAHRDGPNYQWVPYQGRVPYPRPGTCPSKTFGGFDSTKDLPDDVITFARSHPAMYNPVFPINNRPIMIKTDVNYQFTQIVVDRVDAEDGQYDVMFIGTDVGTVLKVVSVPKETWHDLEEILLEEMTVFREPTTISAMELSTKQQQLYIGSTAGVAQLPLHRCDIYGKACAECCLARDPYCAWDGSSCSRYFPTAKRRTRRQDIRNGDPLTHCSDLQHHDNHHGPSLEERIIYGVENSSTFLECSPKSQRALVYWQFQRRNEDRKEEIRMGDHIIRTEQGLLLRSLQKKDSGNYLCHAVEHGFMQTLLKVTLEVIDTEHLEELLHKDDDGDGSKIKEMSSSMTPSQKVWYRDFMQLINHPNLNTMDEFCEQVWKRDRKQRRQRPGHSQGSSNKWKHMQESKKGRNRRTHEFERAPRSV
# Description: For example, the inhibitory activity of SPF-3059-1 for the binding of Sema3A to Neuropilin-1 was actually examined by using the alkaline phosphatase-fused Sema3A (=Sema3A-AP) and Neuropilin-1-expressing COS7 cells. SPF-3059-1 is a compound discovered by the present inventors, which inhibits both collapse and neurite outgrowth inhibition induced by semaphorin 3A (Sema3A). […] Further, in order to elucidate the mechanism of the said inhibition, that is, in order to elucidate whether SPF-3059-1 interacts with Sema3A or with its receptor, the comparison was made by measuring collapse activity between (1) the collapse activity which was observed when a sample, to which SPF-3059-1 and Sema3A were mixed in advance at the concentration raising sufficient inhibitory activity (0.25 μg/ml of SPF-3059-1), was added to the culture solution of dorsal root ganglions and (2) the collapse activity which was observed when Sema3A was added to the above-mentioned culture solution after the addition of SPF-3059-1. The final concentration of SPF-3059-1 (0.05 μg/ml) in the culture solution was the same both for (1) and (2). […] From the above considerations, SPF-3059-1 is thought to act by a mechanism in which the binding of Sema3A to the receptor is inhibited by the direct action of SPF-3059-1 on Sema3A. […]
smiles,measurement,setting,value
CC(=O)c1c(C)c(C(=O)C2COc3cc(O)c(O)c(C(=O)O)c3C2=O)cc2c(=O)c3c(C(=O)O)c(O)c(O)cc3oc12 (stereo not shown) [SPF-3059-1],inhibition of growth cone collapse activity of Sema6C-AP (in words),"[1]; E8 chick embryo dorsal root ganglions, Sema6C-AP added one hour after compound",inhibit the growth cone collapse activities of Sema6C-AP in a concentration-dependent manner
same,"collapse rate of growth cones, compound alone",[1]; Sema6C-AP not added,did not affect the rate at all
same,"inhibition of Sema3A collapse activity, Pre-Mix sample",Sema3A; Sema3A pre-mixed with 0.25 μg/ml compound,Sema3A activity was inhibited; also recorded: inhibition of collapse activity was observed
same,"inhibition of Sema3A collapse activity, compound and Sema3A independently added",Sema3A,inhibitory activity will not be observed; also recorded: Inhibition of collapse activity was not observed

# From US7317038B2, “Nerve regeneration promoters containing semaphorin inhibitor as the active ingredient” (Dainippon Sumitomo Pharma Co., Ltd., priority 2000, dated 2008)
